The source of these data is patent US20110244496A1, “HIV REVERSE TRANSCRIPTASE COMPOSITIONS AND METHODS” (priority 2007, published 2011).

Read-outs that look alike come from different tables or passages of the source.

The target in data set [1] is T1, Leu100Ile/Lys103Asn double mutant RT (Human immunodeficiency virus type 1 group M subtype B, UniProt P03366, K702N/L699I).
T1 construct: RT is a heterodimer consisting of a p66 and p51 subunit
Kind of data set: EC50 of TMC278 against L100I/K103N double mutant. It is filed as cell-based, HIV-1. Particulars: Example 4 (Table 1, not given).

The target in data set [2] is T2, Lys103Asn/Tyr181Cys double mutant RT (Human immunodeficiency virus type 1 group M subtype B, UniProt P03366, K702N/Y780C).
T2 construct: RT is a heterodimer consisting of a p66 and p51 subunit
Kind of data set: EC50 of TMC278 against K103N/Y181C double mutant. Particulars: Example 4. Format: cell-based, HIV-1.

Another data set has as its target T3, K103N RT mutant (Human immunodeficiency virus type 1 group M subtype B, UniProt P03366, K702N).
T3 construct: RT is a heterodimer consisting of a p66 and p51 subunit
Kind of data set: EC50 of TMC278 against K103N mutant. Particulars: Example 4. Format: cell-based, HIV-1.

A further data set deals with T4, Y181C RT mutant (Human immunodeficiency virus type 1 group M subtype B, UniProt P03366, Y780C).
T4 construct: RT is a heterodimer consisting of a p66 and p51 subunit
Kind of data set: EC50 of TMC278 against Y181C mutant. Format: cell-based, HIV-1. Particulars: Example 4.

For a further data set, the target named is T5, wild-type RT (Human immunodeficiency virus type 1 group M subtype B, UniProt P03366).
T5 construct: RT is a heterodimer consisting of a p66 and p51 subunit
To be noted: cited from earlier work.

The target in data set [3] is T1, Leu100Ile/Lys103Asn double mutant RT. Particulars: cited from earlier work.
Data set [4] deals with T2, Lys103Asn/Tyr181Cys double mutant RT. To be noted: cited from earlier work.
Another data set has as its system HIV-1. To be noted: antiretroviral naïve patients; once daily 25, 50, 100, or 150 mg for seven days; day 8 versus before initial dosage; Goebel et al., 2006; cited from earlier work.
For data set [5] the following is noted: patients given TMC278 once daily for seven days; Goebel et al., 2006; cited from earlier work.
The conditions of data set [6]: Goebel et al., 2006, cited from earlier work.

rilpivirine [TMC278]: the EC50 in data set [1] was approximately 8 nM; in [2], less than 1 nM; at K103N RT mutant it was less than 1 nM; at Y181C RT mutant, less than 1 nM; on wild-type RT (Example 2, read-out: EC50 (the 50% effective concentration)), 0.4 nM; on wild-type RT (de Bethune et al. online poster 2005, read-out: EC50) it was 0.51 nM. Also, the EC50 was 2.7 nM in [3] (L100I and K103N (RT51A mutations), de Bethune et al. online poster 2005, read-out: EC50); 7 nM in [3] (double mutant Leu100Ile/Lys103Asn, Example 2, read-out: EC50 (the 50% effective concentration)); 1.7 nM in [4] (K103N and Y181C (RT55A mutations), de Bethune et al. online poster 2005); 1 nM in data set [4] (Lys103Asn/Tyr181Cys double mutant, Guillemont et al., 2005, Janssen et al). For the same substance, the “average decrease of HIV-1 RNA viral load” value with HIV-1 was 1.199 log10 copies/ml. In data set [5], the “headaches reported, patients” value is recorded as 14%. For the same substance, in data set [6] (at any of the time points tested, target concentration 13.5 ng/ml), the “plasma concentrations of TMC278” value was not below 13.5 ng/mL. Also, the Bioavailability entry in [6] (patients, once daily dosage) was “excellent”.
